Reference: patent US12570655B2, “Cysteine covalent modifiers of AKT1 and uses thereof” (Terremoto Biosciences, Inc., priority 2023, dated 2026)
pIC50: −log10 of the molar value. Like-named read-outs stand apart in the source and are kept apart here.

Experiments:
Assay type in all cases: cell-based
AKT1 E17K = target: T1, AKT1 E17K (Homo sapiens, UniProt P31749, E17K); assay: Live cell AKT1 E17K target engagement by NanoBRET competitive probe displacement; details: HEK293 cells transfected with kinase-NanoLuciferase fusion, 2 h at 37° C.
T1 construct: expressed in transfected cells; host or cells: HEK293
Protocol: (§1) Determining Live Cell AKT1 E17K, AKT1 WT, and AKT2 Target Engagement by NanoBRET Competitive Probe Displacement.
(§2) Live cell target engagement assays were performed as described (Vasta, J. D. et al. Cell Chem Biol 2018, 25(11), 206-214). Briefly, HEK293 cells were transfected with plasmids encoding kinase-NanoLuciferase fusion proteins overnight. Cells were then treated with serial dilutions of compound and an ˜EC50 concentration of fluorescently-tagged ATP-competitive tracer (Promega). After incubation for 2 h at 37° C., luciferase substrate and extracellular luciferase inhibitor were added to all wells, and luminescent intensity at 460 nm and 600 nm were measured on a multimode plate-reader. The ratio of E600/E460 was calculated to give the tracer engagement signal (BRET). IC50 values were calculated by fitting BRET values to a log(inhibitor) vs. response Hill equation.

AKT2 = target: T2, AKT2 (Homo sapiens, UniProt P31751); assay: Live cell AKT2 target engagement by NanoBRET competitive probe displacement; details: HEK293 cells transfected with kinase-NanoLuciferase fusion, 2 h at 37° C.
T2 construct: expressed in transfected cells; host or cells: HEK293
Protocol: as §1, §2

[1] = system: LAPC4 prostate cancer cells; assay: Antiproliferative effects in LAPC4 cells (CellTiter Glo); details: LAPC4 cells (AKT1 E17K allele), read-out: LAPC4 proliferation IC50
Protocol: Antiproliferative Effects in LAPC4 Cells.
LAPC4 prostate cancer cells (Klein, K. A. et al. Nat Med 1997, 3, 402-408), which express the AKT1 E17K allele, were grown in IMDM media (Hyclone) supplemented with 12% FBS+1% P/S. To assess compound effects on growth, 1,000 cells/well were seeded in 384 well assay plates, incubated with compound dilutions dissolved in DMSO. After 72 h, intracellular ATP content was assessed with CellTiter Glo reagent (Promega) according to the manufacturer's instructions. IC50 values were calculated by fitting luminescence values to a log(inhibitor) vs. response Hill equation.

AKT1 WT = target: T3, AKT1 WT (Homo sapiens, UniProt P31749); assay: Live cell AKT1 WT target engagement by NanoBRET competitive probe displacement; details: HEK293 cells transfected with kinase-NanoLuciferase fusion, 2 h at 37° C.
T3 construct: expressed in transfected cells; host or cells: HEK293
Protocol: as §1, §2

T2 sequence (P31751 whole entry, the tested form may be a part): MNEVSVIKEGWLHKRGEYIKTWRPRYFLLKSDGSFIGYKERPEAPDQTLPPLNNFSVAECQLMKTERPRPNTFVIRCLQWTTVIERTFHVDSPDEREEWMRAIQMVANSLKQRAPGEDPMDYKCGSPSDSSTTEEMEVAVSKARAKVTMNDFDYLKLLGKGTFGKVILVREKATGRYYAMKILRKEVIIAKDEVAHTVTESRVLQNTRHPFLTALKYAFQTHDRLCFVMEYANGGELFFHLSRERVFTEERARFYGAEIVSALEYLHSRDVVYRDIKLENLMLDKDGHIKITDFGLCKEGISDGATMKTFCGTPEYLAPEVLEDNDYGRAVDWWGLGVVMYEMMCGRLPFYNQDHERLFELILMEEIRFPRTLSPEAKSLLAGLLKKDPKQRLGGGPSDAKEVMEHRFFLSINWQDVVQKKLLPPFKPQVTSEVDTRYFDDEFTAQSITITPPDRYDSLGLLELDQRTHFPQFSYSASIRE
T3 sequence (P31749 whole entry, the tested form may be a part): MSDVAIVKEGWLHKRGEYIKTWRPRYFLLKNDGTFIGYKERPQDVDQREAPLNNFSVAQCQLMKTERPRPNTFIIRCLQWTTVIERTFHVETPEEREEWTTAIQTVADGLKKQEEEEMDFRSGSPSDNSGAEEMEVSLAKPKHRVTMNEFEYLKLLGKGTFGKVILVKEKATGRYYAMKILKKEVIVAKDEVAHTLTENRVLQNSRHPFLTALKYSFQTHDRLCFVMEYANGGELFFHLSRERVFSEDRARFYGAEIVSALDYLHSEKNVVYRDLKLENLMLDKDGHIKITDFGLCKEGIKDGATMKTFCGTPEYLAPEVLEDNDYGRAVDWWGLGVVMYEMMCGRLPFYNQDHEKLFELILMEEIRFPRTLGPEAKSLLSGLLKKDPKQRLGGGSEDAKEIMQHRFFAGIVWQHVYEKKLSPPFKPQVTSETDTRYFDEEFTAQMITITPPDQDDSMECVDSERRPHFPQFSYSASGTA
T1 sequence (P31749 whole entry E17K, the tested form may be a part): as the sequence (P31749 whole entry, the tested form may be a part) above, with E17K counted along it

SMILES	pIC50 (AKT1 E17K)	pIC50 (AKT2)	pIC50 ([1]; 72 h)	pIC50 ([1]; Homo sapiens, LAPC4, 72 h)	pIC50 (AKT1 WT)
C=CC(=O)N1C[C@H]2COC[C@@H](C1)C2N[C@H]1CCc2cc(-n3c(-c4cccnc4N)nc4ccc(C5CC5)nc43)ccc21 (single isomer, unassigned) [Example 172, 1-((1R,5S,9*)-9-(((S)-5-(2-(2-aminopyridin-3-yl)-5-cyclopropyl-3H-imidazo[4,5-b]pyridin-3-yl)-2,3-dihydro-1H-inden-1-yl)amino)-3-oxa-7-azabicyclo[3.3.1]nonan-7-yl)prop-2-en-1-one]	7.29	6.68	6.29	–	–
C=CC(=O)N1CCC(N[C@@H]2c3ccc(-n4c(-c5cccnc5N)nc5ccc(C6CC6)nc54)cc3CC2F)CC1 (single isomer, unassigned) [Example 203, 1-(4-(((1R,2*)-5-(2-(2-aminopyridin-3-yl)-5-cyclopropyl-3H-imidazo[4,5-b]pyridin-3-yl)-2-fluoro-2,3-dihydro-1H-inden-1-yl)amino)piperidin-1-yl)prop-2-en-1-one]	7.49	6.06	5.75	–	–
C=CC(=O)N1CCC(N[C@@H]2c3ccc(-n4c(-c5ccccc5)nc5ccc(-n6cccn6)nc54)cc3CC2F)CC1 (single isomer, unassigned) [Example 249, 1-(4-(((1R,2*)-2-fluoro-5-(2-phenyl-5-(1H-pyrazol-1-yl)-3H-imidazo[4,5-b]pyridin-3-yl)-2,3-dihydro-1H-inden-1-yl)amino)piperidin-1-yl)prop-2-en-1-one]	7.90	6.84	–	6.21	–
C=CC(=O)N1CCC(N[C@@H]2c3ccc(-n4c(-c5ccccc5)nc5ccc(-n6cccn6)nc54)cc3CC2F)CC1 (single isomer, unassigned) [Example 250, 1-(4-(((1R,2*)-2-fluoro-5-(2-phenyl-5-(1H-pyrazol-1-yl)-3H-imidazo[4,5-b]pyridin-3-yl)-2,3-dihydro-1H-inden-1-yl)amino)piperidin-1-yl)prop-2-en-1-one]	7.83	6.87	6.25	–	–
C=CC(=O)N1CCC(N[C@@H]2c3ccc(-n4c(-c5ccccc5F)nc5ccc(-n6cccn6)nc54)cc3CC2F)C[C@H]1C (single isomer, unassigned) [Example 316, 1-((2R,4*)-4-(((1R,2*)-2-fluoro-5-(2-(2-fluorophenyl)-5-(1H-pyrazol-1-yl)-3H-imidazo[4,5-b]pyridin-3-yl)-2,3-dihydro-1H-inden-1-yl)amino)-2-methylpiperidin-1-yl)prop-2-en-1-one]	7.72	6.95	6.27	–	–
C=CC(=O)N1CCC(N[C@@H]2c3ccc(-n4c(-c5ccccc5F)nc5ccc(-n6cccn6)nc54)cc3CC2F)C[C@H]1C (single isomer, unassigned) [Example 318, 1-((2R,4*)-4-(((1R,2*)-2-fluoro-5-(2-(2-fluorophenyl)-5-(1H-pyrazol-1-yl)-3H-imidazo[4,5-b]pyridin-3-yl)-2,3-dihydro-1H-inden-1-yl)amino)-2-methylpiperidin-1-yl)prop-2-en-1-one]	7.53	6.95	6.20	–	–
C=CC(=O)N1CCC(N[C@@H]2c3ccc(-n4c(-c5ccccc5)nc5ccc(-n6cccn6)nc54)cc3CC2F)CC1C(F)F (single isomer, unassigned) [Example 328, 1-((2*,4*)-2-(difluoromethyl)-4-(((1R,2*)-2-fluoro-5-(2-phenyl-5-(1H-pyrazol-1-yl)-3H-imidazo[4,5-b]pyridin-3-yl)-2,3-dihydro-1H-inden-1-yl)amino)piperidin-1-yl)prop-2-en-1-one]	7.75	7.04	–	–	–
C=CC(=O)N1CCC(N[C@H]2CCc3cc(-n4c(-c5cccnc5N)nc5ccc(-n6cccn6)nc54)ccc32)CC1CC#N (single isomer, unassigned) [Example 339, 2-((2*,4*)-1-acryloyl-4-(((S)-5-(2-(2-aminopyridin-3-yl)-5-(1H-pyrazol-1-yl)-3H-imidazo[4,5-b]pyridin-3-yl)-2,3-dihydro-1H-inden-1-yl)amino)piperidin-2-yl)acetonitrile]	7.49	7.10	–	–	–
C=CC(=O)N1CCC(N[C@@H]2c3c(F)cc(-n4c(-c5cccnc5N)nc5ccc(-n6cccn6)nc54)cc3CC2F)CC1 (single isomer, unassigned) [Example 342, 1-(4-(((1R,2*)-5-(2-(2-aminopyridin-3-yl)-5-(1H-pyrazol-1-yl)-3H-imidazo[4,5-b]pyridin-3-yl)-2,7-difluoro-2,3-dihydro-1H-inden-1-yl)amino)piperidin-1-yl)prop-2-en-1-one]	7.62	6.71	–	–	–
C=CC(=O)N1CCN(CC2CCc3cc(-n4c(-c5cccnc5N)nc5ccc(-n6cccn6)nc54)ccc32)CC1 (centres unmarked) [Example 174, 1-(4-((5-(2-(2-aminopyridin-3-yl)-5-(1H-pyrazol-1-yl)-3H-imidazo[4,5-b]pyridin-3-yl)-2,3-dihydro-1H-inden-1-yl)methyl)piperazin-1-yl)prop-2-en-1-one]	8.07	–	–	7.05	7.18
C=CC(=O)N1CCC(N[C@H]2CCc3cc(-n4c(-c5cccnc5N)nc5cc(-c6cccnc6)cnc54)ccc32)CC1 [Example 190, (S)-1-(4-((5-(2-(2-aminopyridin-3-yl)-6-(pyridin-3-yl)-3H-imidazo[4,5-b]pyridin-3-yl)-2,3-dihydro-1H-inden-1-yl)amino)piperidin-1-yl)prop-2-en-1-one]	7.00	–	–	5.88	6.13
C=CC(=O)N1CCC(N[C@H]2CCc3cc(-n4c(-c5cccnc5N)nc5cc(-c6ccncc6)cnc54)ccc32)CC1 [Example 191, (S)-1-(4-((5-(2-(2-aminopyridin-3-yl)-6-(pyridin-4-yl)-3H-imidazo[4,5-b]pyridin-3-yl)-2,3-dihydro-1H-inden-1-yl)amino)piperidin-1-yl)prop-2-en-1-one]	6.66	–	–	5.47	5.90
C=CC(=O)N1CCC(N[C@H]2CCc3cc(-n4c(-c5cccnc5N)nc5cc(-n6cccn6)cnc54)ccc32)CC1 [Example 217, 1-(4-{[(1S)-5-[2-(2-aminopyridin-3-yl)-6-(pyrazol-1-yl)imidazo[4,5-b]pyridin-3-yl]-2,3-dihydro-1H-inden-1-yl]amino}piperidin-1-yl)prop-2-en-1-one]	6.49	–	–	5.46	5.73
C=CC(=O)N1CCc2cccc(C(=O)N[C@H]3CCc4cc(-n5c(-c6cccnc6N)nc6ccc(-n7cccn7)nc65)ccc43)c2C1 [Example 235, (S)-2-acryloyl-N-(5-(2-(2-aminopyridin-3-yl)-5-(1H-pyrazol-1-yl)-3H-imidazo[4,5-b]pyridin-3-yl)-2,3-dihydro-1H-inden-1-yl)-1,2,3,4-tetrahydroisoquinoline-8-carboxamide]	7.90	–	–	7.18	7.29
C=CC(=O)N1CCC(N[C@H]2CCc3cc(-n4c(-c5cccnc5N)nc5ccc(C(C)C)nc54)ccc32)CC1 [Example 242, 1-(4-{[(1S)-5-[2-(2-aminopyridin-3-yl)-5-isopropylimidazo[4,5-b]pyridin-3-yl]-2,3-dihydro-1H-inden-1-yl]amino}piperidin-1-yl)prop-2-en-1-one]	7.52	–	–	6.12	5.84
C=CC(=O)N1CCC(N[C@H]2CCc3cc(-n4c(-c5cccnc5N)nc5cc(-c6ccccn6)cnc54)ccc32)CC1 [Example 269, 1-(4-{[(1S)-5-[2-(2-aminopyridin-3-yl)-6-(pyridin-2-yl)imidazo[4,5-b]pyridin-3-yl]-2,3-dihydro-1H-inden-1-yl]amino}piperidin-1-yl)prop-2-en-1-one]	6.61	–	–	5.27	5.67
C=CC(=O)N1CCC(N[C@@H]2CCc3cc(-n4c(-c5cccnc5N)nc5ccc(-n6cccn6)nc54)ccc3C2)CC1 [Example 295, 1-(4-{[(2R)-6-[2-(2-aminopyridin-3-yl)-5-(pyrazol-1-yl)imidazo[4,5-b]pyridin-3-yl]-1,2,3,4-tetrahydronaphthalen-2-yl]amino}piperidin-1-yl)prop-2-en-1-one]	8.03	–	–	7.75	7.63
C=CC(=O)N1CCC(N[C@@H]2c3ccc(-n4c(-c5ccccc5)nc5ccc(-n6ccc(F)n6)nc54)cc3CC2F)CC1 (stereo partly drawn) [Example 332, 1-(4-(((1R,2*)-2-fluoro-5-(5-(3-fluoro-1H-pyrazol-1-yl)-2-phenyl-3H-imidazo[4,5-b]pyridin-3-yl)-2,3-dihydro-1H-inden-1-yl)amino)piperidin-1-yl)prop-2-en-1-one]	7.55	6.32	–	–	–
